# According to PubChem BioAssay AID248 (DTP/NCI, 2004):
# Where “and” joins values, the source holds several entries; their conditions need not be identical. Equal entries are not always repeated. Inconclusive results and toxic doses are left out.
# Test system: L1210 leukemia ip in BDF1 mice, survival T/C
# Assay: NCI In Vivo Anticancer Drug Screen. Data for tumor model L1210 Leukemia (intraperitoneal) in B6D2F1 (BDF1) mice
# Conditions: endpoint: mean survival time, higher = longer survival
# Procedure, shortened: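 Mice bearing the transplanted tumor received compound or vehicle. Survival of the treated group was divided by that of the vehicle-treated control group to give the ratio.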
smiles,measurement,setting,value
CC(=O)OCC1OC(n2ccc(N)nc2=O)C(OC(C)=O)C1OC(C)=O (stereo unspecified),T/C,"dose: 6.3 mg/kg/injection, schedule: Q01DX015 (oral), vehicle: carboxymethylcellulose (CMC)",117 % of control
same,T/C,"dose: 6.6 mg/kg/injection, schedule: Q03HX024 (ip), vehicle: carboxymethylcellulose (CMC)",156 % of control
same,T/C,"dose: 10.0 mg/kg/injection, schedule: Q01DX015 (ip), vehicle: saline",101 % of control
same,T/C,"dose: 11.0 mg/kg/injection, schedule: Q03HX008 (ip), vehicle: carboxymethylcellulose (CMC)",121 % of control
same,T/C,"dose: 11.0 mg/kg/injection, schedule: Q03HX024 (ip), vehicle: carboxymethylcellulose (CMC)",184 % of control
same,T/C,"dose: 12.5 mg/kg/injection, schedule: Q01DX015 (oral), vehicle: carboxymethylcellulose (CMC)",116 % of control
same,T/C,"dose: 15.0 mg/kg/injection, schedule: Q01DX015 (ip), vehicle: saline",117 % of control
same,T/C,"dose: 18.0 mg/kg/injection, schedule: Q03HX024 (ip), vehicle: carboxymethylcellulose (CMC)",207 % of control
same,T/C,"dose: 23.0 mg/kg/injection, schedule: Q01DX015 (ip), vehicle: saline",124 % of control
same,T/C,"dose: 25.0 mg/kg/injection, schedule: Q01DX015 (oral), vehicle: carboxymethylcellulose (CMC)",122 % of control
same,T/C,"dose: 30.0 mg/kg/injection, schedule: Q03HX024 (ip), vehicle: carboxymethylcellulose (CMC)",246 % of control
same,T/C,"dose: 35.0 mg/kg/injection, schedule: Q01DX015 (ip), vehicle: saline",150 % of control and 168 % of control
same,T/C,"dose: 37.0 mg/kg/injection, schedule: Q01DX009 (oral), vehicle: water",123 % of control
same,T/C,"dose: 37.0 mg/kg/injection, schedule: Q## X024 (oral), vehicle: water",100 % of control
same,T/C,"dose: 50.0 mg/kg/injection, schedule: Q01DX009 (ip), vehicle: saline",153 % of control
same,T/C,"dose: 50.0 mg/kg/injection, schedule: Q01DX009 (ip), vehicle: water",171 % of control
same,T/C,"dose: 50.0 mg/kg/injection, schedule: Q01DX009 (sc), vehicle: water",158 % of control
same,T/C,"dose: 51.0 mg/kg/injection, schedule: Q01DX009 (ip), vehicle: carboxymethylcellulose (CMC)",180 % of control
same,T/C,"dose: 51.0 mg/kg/injection, schedule: Q03HX008 (ip), vehicle: carboxymethylcellulose (CMC)",157 % of control
same,T/C,"dose: 55.0 mg/kg/injection, schedule: Q01DX015 (ip), vehicle: saline",201 % of control
same,T/C,"dose: 75.0 mg/kg/injection, schedule: Q01DX005 (oral), vehicle: water",121 % of control
same,T/C,"dose: 75.0 mg/kg/injection, schedule: Q01DX009 (oral), vehicle: water",117 % of control
same,T/C,"dose: 86.0 mg/kg/injection, schedule: Q01DX009 (ip), vehicle: carboxymethylcellulose (CMC)",213 % of control
same,T/C,"dose: 100.0 mg/kg/injection, schedule: Q01DX005 (ip), vehicle: saline",154 % of control and 164 % of control
same,T/C,"dose: 100.0 mg/kg/injection, schedule: Q01DX009 (ip), vehicle: saline",222 % of control
same,T/C,"dose: 100.0 mg/kg/injection, schedule: Q01DX009 (ip), vehicle: water",235 % of control
same,T/C,"dose: 100.0 mg/kg/injection, schedule: Q01DX009 (sc), vehicle: water",205 % of control
same,T/C,"dose: 100.0 mg/kg/injection, schedule: Q01DX011 (oral), vehicle: water",156 % of control and 175 % of control
same,T/C,"dose: 125.0 mg/kg/injection, schedule: Q01DX015 (ip), vehicle: saline",314 % of control
same,T/C,"dose: 150.0 mg/kg/injection, schedule: Q01DX001 (ip), vehicle: water",114 % of control
same,T/C,"dose: 150.0 mg/kg/injection, schedule: Q01DX001 (sc), vehicle: water",150 % of control
same,T/C,"dose: 150.0 mg/kg/injection, schedule: Q01DX005 (oral), vehicle: water",112 % of control
same,T/C,"dose: 150.0 mg/kg/injection, schedule: Q## X003 (oral), vehicle: water",120 % of control
same,T/C,"dose: 150.0 mg/kg/injection, schedule: Q## X024 (oral), vehicle: water",104 % of control and 113 % of control
same,T/C,"dose: 200.0 mg/kg/injection, schedule: Q01DX005 (ip), vehicle: saline",190 % of control and 198 % of control
same,T/C,"dose: 200.0 mg/kg/injection, schedule: Q01DX009 (ip), vehicle: saline",109 % of control
same,T/C,"dose: 200.0 mg/kg/injection, schedule: Q01DX009 (ip), vehicle: water",88 % of control
same,T/C,"dose: 200.0 mg/kg/injection, schedule: Q01DX009 (sc), vehicle: water",95 % of control
same,T/C,"dose: 200.0 mg/kg/injection, schedule: Q01DX011 (oral), vehicle: water",201 % of control
same,T/C,"dose: 250.0 mg/kg/injection, schedule: Q01DX001 (ip), vehicle: saline",116 % of control
same,T/C,"dose: 250.0 mg/kg/injection, schedule: Q01DX015 (ip), vehicle: saline",86 % of control
same,T/C,"dose: 300.0 mg/kg/injection, schedule: Q01DX001 (ip), vehicle: water",118 % of control
same,T/C,"dose: 300.0 mg/kg/injection, schedule: Q01DX001 (oral), vehicle: water",103 % of control and 108 % of control
same,T/C,"dose: 300.0 mg/kg/injection, schedule: Q01DX005 (oral), vehicle: water",184 % of control
same,T/C,"dose: 300.0 mg/kg/injection, schedule: Q01DX009 (oral), vehicle: water",167 % of control
same,T/C,"dose: 300.0 mg/kg/injection, schedule: Q07DX004 (oral), vehicle: water",103 % of control
same,T/C,"dose: 300.0 mg/kg/injection, schedule: Q## X006 (oral), vehicle: water",108 % of control
same,T/C,"dose: 300.0 mg/kg/injection, schedule: Q## X008 (oral), vehicle: water",112 % of control
same,T/C,"dose: 300.0 mg/kg/injection, schedule: Q## X024 (oral), vehicle: water",113 % of control
same,T/C,"dose: 400.0 mg/kg/injection, schedule: Q01DX011 (oral), vehicle: water",179 % of control
same,T/C,"dose: 600.0 mg/kg/injection, schedule: Q01DX001 (oral), vehicle: water",108 % of control and 114 % of control
same,T/C,"dose: 600.0 mg/kg/injection, schedule: Q01DX005 (oral), vehicle: water",153 % of control
same,T/C,"dose: 600.0 mg/kg/injection, schedule: Q01DX009 (oral), vehicle: water",185 % of control
same,T/C,"dose: 600.0 mg/kg/injection, schedule: Q07DX004 (oral), vehicle: water",107 % of control
same,T/C,"dose: 600.0 mg/kg/injection, schedule: Q## X003 (oral), vehicle: water",153 % of control
same,T/C,"dose: 600.0 mg/kg/injection, schedule: Q## X006 (oral), vehicle: water",114 % of control
same,T/C,"dose: 600.0 mg/kg/injection, schedule: Q## X024 (oral), vehicle: water",120 % of control
same,T/C,"dose: 660.0 mg/kg/injection, schedule: Q04DX003 (ip), vehicle: carboxymethylcellulose (CMC)",214 % of control
same,T/C,"dose: 800.0 mg/kg/injection, schedule: Q01DX011 (oral), vehicle: water",121 % of control
same,T/C,"dose: 1000.0 mg/kg/injection, schedule: Q01DX001 (ip), vehicle: saline",164 % of control
same,T/C,"dose: 1099.0 mg/kg/injection, schedule: Q01DX001 (ip), vehicle: carboxymethylcellulose (CMC)",160 % of control
same,T/C,"dose: 1099.0 mg/kg/injection, schedule: Q04DX003 (ip), vehicle: carboxymethylcellulose (CMC)",244 % of control
same,T/C,"dose: 1200.0 mg/kg/injection, schedule: Q01DX001 (oral), vehicle: water",115 % of control and 121 % of control
same,T/C,"dose: 1200.0 mg/kg/injection, schedule: Q01DX005 (oral), vehicle: water",153 % of control and 180 % of control
same,T/C,"dose: 1200.0 mg/kg/injection, schedule: Q01DX015 (oral), vehicle: carboxymethylcellulose (CMC)",100 % of control
same,T/C,"dose: 1200.0 mg/kg/injection, schedule: Q07DX004 (oral), vehicle: water",119 % of control
same,T/C,"dose: 1200.0 mg/kg/injection, schedule: Q## X003 (oral), vehicle: water",185 % of control
same,T/C,"dose: 1832.0 mg/kg/injection, schedule: Q01DX001 (ip), vehicle: carboxymethylcellulose (CMC)",156 % of control
same,T/C,"dose: 1832.0 mg/kg/injection, schedule: Q04DX003 (ip), vehicle: carboxymethylcellulose (CMC)",228 % of control
same,T/C,"dose: 2400.0 mg/kg/injection, schedule: Q01DX001 (oral), vehicle: water",109 % of control
same,T/C,"dose: 2400.0 mg/kg/injection, schedule: Q07DX004 (oral), vehicle: water",123 % of control
same,T/C,"dose: 2400.0 mg/kg/injection, schedule: Q## X003 (oral), vehicle: water",189 % of control
same,T/C,"dose: 2400.0 mg/kg/injection, schedule: Q## X006 (oral), vehicle: water",181 % of control
CC1C2CCC(C2)C1C(=O)O (stereo unspecified),T/C,"dose: 100.0 mg/kg/injection, schedule: Q01DX009 (ip), vehicle: other",97 % of control
same,T/C,"dose: 100.0 mg/kg/injection, schedule: Q04DX003 (ip), vehicle: saline with Tween-80",96 % of control
same,T/C,"dose: 200.0 mg/kg/injection, schedule: Q01DX009 (ip), vehicle: other",109 % of control
same,T/C,"dose: 400.0 mg/kg/injection, schedule: Q01DX009 (ip), vehicle: other",95 % of control
same,T/C,"dose: 400.0 mg/kg/injection, schedule: Q04DX003 (ip), vehicle: saline with Tween-80",87 % of control
O=C(NC1(C(=O)O)CCCC1)C(F)(F)F,T/C,"dose: 100.0 mg/kg/injection, schedule: Q04DX003 (ip), vehicle: saline",98 % of control
same,T/C,"dose: 200.0 mg/kg/injection, schedule: Q04DX003 (ip), vehicle: saline",118 % of control
same,T/C,"dose: 400.0 mg/kg/injection, schedule: Q04DX003 (ip), vehicle: saline",111 % of control
